What was measured:
[1] = system: IRF4 expression in CD14+ monocytes; assay: IRF4 and MAFB expression in monocytes after 3 h of culture, RT-qPCR; assay type: cell-based, human; conditions: 3 h culture, with IL-4 (FICZ: with IL-4 and TNF-α)
Protocol: (§1) FIG. 2: AHR is a molecular switch for mo-DC versus mo-Mac differentiation. (A-B) CD14^+ monocytes were infected at day 0 with lentivirus containing sh RNA against AHR, or control sh RNA. After 5 days of culture, cells were analyzed by Immuno Blot (A) or by flow cytometry (B). (A) Silencing quantified based on Immuno Blot stainings. (B) Proportions of DC and macrophages in the culture at day 5. Each symbol represents an individual donor (n=6 in 3 independent experiments). *p<0.05. (C) Monocytes were cultured with MCSF, IL-4 and TNF-α for 5 days, in the presence of various concentrations of FICZ (AHR agonist) or SR1 (AHR inhibitor). Proportions of DC and macrophages at day 5. […] (D-E) CD14^+ monocytes were analyzed directly after isolation, or were cultured for 3h in medium alone or with various combinations of MCSF, IL-4, TNF-α, FICZ or SRI. (D) Relative expression of IRF4 and MAFB measured by RT-qPCR. […] (E) Expression of IRF4 and MAFB at the single cell level was measured by fluorescent in situ hybridization coupled to flow cytometry. […]
To decipher how AHR shapes monocyte fate, we assessed IRF4 and MAFB expression in monocytes after 3 h of culture with various combinations of M-CSF, IL-4, TNF-α, SR1 and FICZ (FIG. 2D). We also analyzed the expression of CYP1A1, a known direct target of AHR (Stockinger et al., 2014), as a control for AHR activation. […]

CD14+ monocytes = assay: Human CD14+ monocyte differentiation into mo-DC versus mo-Mac (culture with M-CSF, IL-4 and TNF-α, flow cytometry at day 5); assay type: cell-based; conditions: monocytes cultured with M-CSF, IL-4 and TNF-α for 5 days, various doses of compound
Protocol: as §1
FIG. 3: AHR acts on mo-DC differentiation through BLIMP-1. […] PRDM1 expression measured by RT-qPCR. […] Total cells were lyzed at different days and analyzed by Immuno Blot. […] After 5 days of culture, cells were analyzed by Immuno Blot (C) or by flow cytometry (D-E). (C) Silencing quantified based on Immuno Blot stainings. […]

Treg cells = assay: Induction of functional Treg cells upon administration
Description: The impact of a given AHR agonist on Treg cells may be estimated by exposing purified T cells (typically CD4^+ T cells) in vitro with the said agonist. Treg cells are characterized by expression of the transcription factor Foxp3.

peritoneal mo-DC = assay: Peritoneal MHCII+CD226+ mo-DC in antibiotics-treated mice fed I3C-supplemented or control diet; assay type: in vivo, mouse; conditions: I3C-supplemented versus control diet, peritoneal lavage
Description: FIG. 4: AhR is involved in mo-DC differentiation in vivo in the mouse. (A-C) Ear skin from individual AhR^-/- mice or WT littermates (A-B), or C57BL/6 mice fed with an experimental diet supplemented or not with indole-3-carbinol […]) (C), was digested to prepare single-cell suspensions. After gating on live CD45^+CD3^-NK1.1^-CD19^-Ly6G^-CD24^- CD11b^+ cells, cells were separated into 5 subsets based on the expression of Ly6C, CD64, MHC II and CCR2. (A) One representative AhR^-/- and WT mouse is shown. (B-C) Proportions of monocytes, early mo-DC, mo-DC, MHC II^+ macrophages and resident MHC II^- macrophages among Ly6C^+ or CD64^+ cells. Each symbol represents an individual mouse (B n=9 in 2 independent experiments, C n=12 in 2 independent experiments).*p<0.05, **p<0.01. (D-E) Cells from the peritoneal lavage were analyzed by flow cytometry. After gating on live CD115^+CD11b^+ cells, cells were separated into MHCII^+CD226^+ cells and ICAM2^+MHCII^- cells. (D) Cell-sorted cells were analyzed after cytospin and Giemsa/May-Grünwald staining. Bar=10 μm. Representative of 2 independent experiments. […] To address whether the decrease of peritoneal mo-DC upon antibiotics treatment was AhR-dependent, we fed antibiotics-treated mice with a […]-supplemented or control diet, and analyzed cells from the peritoneal lavage (FIG. 3E).

[2] = system: dermal mo-DC and MHC class II+ macrophages; assay: Skin mo-DC and macrophage proportions in mice fed I3C-supplemented diet; assay type: in vivo, mouse; conditions: supplemented diet versus control diet
Description: FIG. 4: AhR is involved in mo-DC differentiation in vivo in the mouse. (A-C) Ear skin from individual AhR^-/- mice or WT littermates (A-B), or C57BL/6 mice fed with an experimental diet supplemented or not with indole-3-carbinol […]) (C), was digested to prepare single-cell suspensions. After gating on live CD45^+CD3^-NK1.1^-CD19^-Ly6G^-CD24^- CD11b^+ cells, cells were separated into 5 subsets based on the expression of Ly6C, CD64, MHC II and CCR2. (A) One representative AhR^-/- and WT mouse is shown. (B-C) Proportions of monocytes, early mo-DC, mo-DC, MHC II^+ macrophages and resident MHC II^- macrophages among Ly6C^+ or CD64^+ cells. Each symbol represents an individual mouse (B n=9 in 2 independent experiments, C n=12 in 2 independent experiments).*p<0.05, **p<0.01. (D-E) Cells from the peritoneal lavage were analyzed by flow cytometry. After gating on live CD115^+CD11b^+ cells, cells were separated into MHCII^+CD226^+ cells and ICAM2^+MHCII^- cells. (D) Cell-sorted cells were analyzed after cytospin and Giemsa/May-Grünwald staining. Bar=10 μm. Representative of 2 independent experiments. (E) C57BL/6 mice fed with an experimental diet supplemented or not with […], and treated or not with a cocktail of antibiotics. […] To address the physiological relevance of our findings, we analyzed the role of AhR in mo-DC and mo-Mac differentiation in vivo in the mouse. […]

`CC(C)n1cnc2c(NCCc3ccc(O)cc3)nc(-c3csc4ccccc34)nc21` [SR1, stemregenin-1] was tested, and the “IL-4-induced IRF4 expression” value [1] was “inhibited”, the “mo-DC development / proportions at day 5” value (CD14+ monocytes) was “decreasing” and the “mo-Mac development / proportions at day 5” value (CD14+ monocytes) was “increased”.
`OCc1c[nH]c2ccccc12` [I3C, indole-3-carbinol] was tested, and the “induction of functional Treg cells” value (Treg cells) was “does not induce functional Treg cells”, the “peritoneal mo-DC differentiation in antibiotics-treated mice” value (peritoneal mo-DC) was “restored mo-DC differentiation in antibiotics-treated mice almost up to normal proportions” and the “MHC class II+ macrophages in the skin” value [2] was “decreased”. For the same molecule, the “mo-DC in the skin” value [2] was “significantly increased”.
